Assay [1] has as its system OVA-induced asthma model mice. The experiment in a line: Lung pathology (H&E) of OVA-induced asthma model mice. It is filed as in vivo, BALB/c mice. To be noted: after 28 days. As for the experimental part:
The first batch: mice were divided into groups, 10 mice in each group, namely: blank control group (normal saline), model group (OVA, 20 ug/mouse), SP peptide group (administered dose of 175 µg/kg body weight/day, 350 µg/kg body weight/day, respectively), SIPI-D00 peptide group (administered dose of 175 µg/kg body weight/day, 350 µg/kg body weight/day), and dexamethasone group (administered dose of 2 mg/kg body weight/day).
Mice in the model group, SP peptide group, SIPI-D00 peptide group and dexamethasone group were sensitized by intraperitoneal injection of OVA (20 µg OVA/mice) on day 0, 7, and 14, and challenged by aerosol administration of OVA (once a day for 5 consecutive days) on day 21-25 to construct asthmatic model animals. Mice in the model group were given normal saline on days 21-28; mice in different doses of SP peptide group and SIPI-D00 peptide group were injected subcutaneously with different doses of SP and SIPI-D00 on days 19-28; mice in dexamethasone group were injected intraperitoneally with 2 mg/kg/day dexamethasone on days 21-28. At the same time, 10 mice in the blank control group were fed normally from day 0 to day 28 without any treatment, and were given normal saline as a blank control.
After 28 days, the mouse lung tissue was taken out, fixed in 4% formaldehyde, embedded in paraffin, sectioned, and stained with H&E for pathological observation.
The first batch: mice were divided into groups, 10 mice in each group, namely: blank control group (normal saline), model group (OVA, 20 ug/mice), and SP peptide group (administered dose of 175 µg/kg body weight/day, 350 µg/kg body weight/day, respectively), SIPI-G5 peptide group (administered dose of 175 µg/kg body weight/day, 350 µg/kg body weight/day), dexamethasone group (administered dose of 2 mg/kg body weight/day).
At the same time, 10 mice in the blank control group were fed normally from day 0 to day 28 without any treatment, and were given normal saline as a blank control.

Assay [2] has as its system ConA-stimulated mouse splenocytes. The experiment in a line: Secretion of IL-4 from mouse splenocytes stimulated by ConA (ELISA). To be noted: for IL-4 levels of polypeptides: ConA 5 µg/mL, 24 h. Format: cell-based, BALB/C mice. The protocol: (§1) Three BALB/C mice were sacrificed by cervical dislocation after anesthesia. Then mice were immersed in 75% ethanol for 5 minutes. After dissection and spleen extraction, spleen lymphocytes were prepared. […] Different concentrations of test substances were added to each well, and duplicate wells were set for each concentration, and the final concentration of ConA was 5 µg/mL. The plate was incubated in a 37° C. 5% CO2 incubator for 24 h, the drug-containing cell suspension was aspirated from each well, then centrifuged at 200 g for 15 min at 4° C. The supernatant was taken, and mouse IL-4 Elisa kit was used to detect IL- 4 content.
as §1, with “each concentration was” for “duplicate wells were”, “up as triple wells,” for “for each concentration,”, “kit (mouse IL-4 Elisa kit)” for “kit”

Each structure is given as a SMILES string. Square brackets hold non-standard residues; d marks the D form. Peptide text beside a SMILES is read from it.

As to `C[C@H](O)[C@@H](NC(=O)[C@@H](Cc1ccc(O)cc1)NC(=O)[C@H](NC(=O)[C@@H](CO)NC(=O)CN)[C@H](C)O)C(=O)N[C@H](CCC(N)=O)C(=O)NCC(=O)O` [SIPI-D00, GSTYTQG] (H-G[dS][dT][dY][dT][dQ]G-OH), the “lung pathology, H&E” value in assay [1] (high-dose group (350 µg/kg body weight/day)) was “less inflammatory cell infiltration and clear alveolar cavity”; in assay [1] (low-dose group (175 µg/kg body weight/day)), “more inflammatory cells infiltrating in the lungs”. In assay [1] (overall), the “infiltration of inflammatory cells in the lungs, H&E” value is on record as “significantly reduce the infiltration of inflammatory cells”. The “secretion of IL-4 by ConA-stimulated mouse spleen lymphocytes (in words)” value in assay [2] was “significantly inhibit”. The “Inhibitory rate of polypeptide on IL-4 secretion” value in assay [2] (peptide concentration 1 µg/mL) turned out to be 34.96%; in assay [2] (peptide concentration 3 µg/mL) it was 59.68%; in assay [2] (peptide concentration 10 µg/mL), 71.00%; in assay [2] (peptide concentration 30 µg/mL), 72.82%. Further, the “IL-4 levels of polypeptides” value in assay [2] (peptide concentration 1 µg/mL) turned out to be 14.05 ± 2.19 pg/mL; in assay [2] (peptide concentration 3 µg/mL), 8.71 ± 0.95 pg/mL; in assay [2] (peptide concentration 10 µg/mL), 6.26 ± 0.36 pg/mL; in assay [2] (peptide concentration 30 µg/mL), 5.87 ± 0.49 pg/mL.

The record behind these values is US20230203095A1, “BIOLOGICAL PEPTIDE FOR TREATING LUNG DISEASES AND APPLICATION THEREOF” (SHANGHAI INSTITUTE OF PHARMACEUTICAL INDUSTRY CO., LTD., priority 2019, published 2023).
